Laboratory results reported in paper PMC4007590, “Development of an oligonucleotide-based fluorescence assay for the identification of tyrosyl-DNA phosphodiesterase 1 (TDP1) inhibitors” (Analytical Biochemistry, 2014).
pIC50: −log10 of the molar value. Like-named read-outs stand apart in the source and are kept apart here.

Target: T1, tyrosyl-DNA phosphodiesterase 1 (TDP1) (Homo sapiens, UniProt Q9NUW8)
T1 construct: catalytic domain of human TDP1
Experiment: Gyrasol fluorescence quench assay, FITC-phosphotyrosyl […]mer oligonucleotide substrate, recombinant TDP1
Assay type: biochemical

T1 sequence (Q9NUW8 149-608 limits assumed): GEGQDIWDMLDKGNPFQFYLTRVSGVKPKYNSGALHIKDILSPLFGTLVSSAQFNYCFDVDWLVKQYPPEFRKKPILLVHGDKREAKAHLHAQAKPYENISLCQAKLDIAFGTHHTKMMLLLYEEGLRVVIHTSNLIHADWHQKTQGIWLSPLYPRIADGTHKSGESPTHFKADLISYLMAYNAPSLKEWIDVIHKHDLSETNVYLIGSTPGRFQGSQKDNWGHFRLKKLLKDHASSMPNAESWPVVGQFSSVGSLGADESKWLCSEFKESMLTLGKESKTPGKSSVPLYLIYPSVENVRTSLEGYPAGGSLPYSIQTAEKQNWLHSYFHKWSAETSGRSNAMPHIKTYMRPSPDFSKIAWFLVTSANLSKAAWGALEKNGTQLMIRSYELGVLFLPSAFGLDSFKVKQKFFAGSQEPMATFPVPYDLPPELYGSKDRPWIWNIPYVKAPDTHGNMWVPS

| Structure (SMILES) | pIC50 (read-out: IC50) | pIC50 |
| --- | --- | --- |
| Cc1ccc(C(=O)Nc2ccc(S(=O)(=O)O)c3cc(S(=O)(=O)O)cc(S(=O)(=O)O)c23)cc1NC(=O)c1cccc(NC(=O)Nc2cccc(C(=O)Nc3cc(C(=O)Nc4ccc(S(=O)(=O)O)c5cc(S(=O)(=O)O)cc(S(=O)(=O)O)c45)ccc3C)c2)c1 [Suramin] | 5.30 | – |
| [O]=[V]([OH])([OH])[OH] [sodium orthovanadate] | – | 5.40 |
